pEC50, pIC50: −log10 of the molar value. Read-outs that look alike come from different tables or passages of the source.
Tests used:
[1] = target: T1, human Cot catalytic domain (30-397 amino acids) (Homo sapiens, UniProt P41279); assay: High Throughput Cot Biochemical Assay (KinEASE TR-FRET); settings: Cot KinEASE TR-FRET, 400 μM ATP; read-out: IC50 HTRF
T1 construct: Purified recombinant human Cot catalytic domain (30-397 amino acids) was purchased from Cama Biosciences; purchased Cama Biosciences (so in the source)
Procedure, shortened: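 Phosphorylation of 1 μM XL665-STK3 peptide by 5 nM Cot catalytic domain was measured by time-resolved FRET using a europium […] antibody. ATP was 400 μM; buffer was 10 mM MOPS pH 7.0 with Mg2+ and DTT.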

[2] = tested on: TNFα production in LPS-stimulated human monocytes; assay: Cot Monocyte TNFα Cell Based Assay; settings: Homo sapiens, Monocyte, read-out: EC50 TNF
Procedure, shortened: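 Percent-of-control values derive from TR-FRET ratios of TNFα in spun-down media, referenced to unstimulated and LPS-stimulated wells. Exposure: 1 h compound preincubation, then 50 pg/ml LPS for 4 h, both at 37 °C, with 0.5% final DMSO.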

[3] = LPS-stimulated human monocytes, TNFα TR-FRET

T1 sequence (P41279 30-397): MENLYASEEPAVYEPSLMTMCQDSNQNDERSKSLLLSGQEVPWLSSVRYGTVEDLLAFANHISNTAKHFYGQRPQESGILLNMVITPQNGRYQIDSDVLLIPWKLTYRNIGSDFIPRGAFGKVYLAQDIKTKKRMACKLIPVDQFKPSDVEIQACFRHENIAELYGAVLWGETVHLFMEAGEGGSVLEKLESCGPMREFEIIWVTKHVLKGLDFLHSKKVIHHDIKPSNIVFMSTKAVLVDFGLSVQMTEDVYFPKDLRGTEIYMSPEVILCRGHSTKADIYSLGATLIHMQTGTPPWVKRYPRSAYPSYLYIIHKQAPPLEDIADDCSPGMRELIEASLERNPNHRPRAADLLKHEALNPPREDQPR

| Compound | pIC50 [1] | pEC50 [2, 3] | pEC50 [2] |
| --- | --- | --- | --- |
| [2H][C@](Nc1cc(C#N)c2ncc(C#N)c(NCC(C)(C)C)c2c1)(c1cccc(C#N)c1)c1cn(-c2cccnc2)nn1 [Example 1005, (S)-6-(((3-cyanophenyl)(1-(pyridin-3-yl)-1H-1,2,3-triazol-4-yl)methyl-d)amino)-4-(neopentylamino) quinoline-3,8-dicarbonitrile] | ≤ 5.00 | ≤ 6.00 | – |
| [2H][C@](Nc1cc(C#N)c2ncc(C#N)c(NCC(C)(C)C)c2c1)(c1ccc(F)cc1)c1cn(C2(CF)CC2)nn1 [Example 1006, (S)-6-(((1-(1-(fluoromethyl)cyclopropyl)-1H-1,2,3-triazol-4-yl)(4-fluorophenyl)methyl-d)amino)-4-(neopentylamino)quinoline-3,8-dicarbonitrile] | 8.05 | 7.14 | – |
| [2H][C@](Nc1cc(C#N)c2ncc(C#N)c(NCC(C)(C)C)c2c1)(c1cccc(C#N)c1)c1cn(C2(CF)CC2)nn1 [Example 1007, (S)-6-(((3-cyanophenyl)(1-(1-(fluoromethyl)cyclopropyl)-1H-1,2,3-triazol-4-yl)methyl-d)amino)-4-(neopentylamino)quinoline-3,8-dicarbonitrile] | 8.70 | 7.18 | – |
| Cc1c(C#N)cccc1[C@H](Nc1cc(Cl)c2ncc(C#N)c(NCC(C)(C)C)c2c1)c1cn(C2(C(N)=O)CC2)nn1 [Example 1008, (S)-1-(4-(((8-chloro-3-cyano-4-(neopentylamino)quinolin-6-yl)amino)(3-cyano-2-methylphenyl)methyl)-1H-1,2,3-triazol-1-yl)cyclopropane-1-carboxamide] | 9.00 | 6.91 | – |
| Cc1c(C#N)cccc1[C@H](Nc1cc(Cl)c2ncc(C#N)c(NCC(C)(C)C)c2c1)c1cn(C2(C(N)=O)CCC2)nn1 [Example 1009, (S)-1-(4-(((8-chloro-3-cyano-4-(neopentylamino)quinolin-6-yl)amino)(3-cyano-2-methylphenyl)methyl)-1H-1,2,3-triazol-1-yl)cyclobutane-1-carboxamide] | 9.00 | 7.17 | – |
| [2H][C@](Nc1cc(Cl)c2ncc(C#N)c(NCC(C)(C)C)c2c1)(c1ccc(Cl)cc1)c1cn(C23CCN(CC2)CC3)nn1 [Example 1010, (S)-8-chloro-6-(((4-chlorophenyl)(1-(quinuclidin-4-yl)-1H-1,2,3-triazol-4-yl)methyl-d)amino)-4-(neopentylamino)quinoline-3-carbonitrile] | 7.16 | – | 6.03 |
| CC(C)(C)CNc1c(C#N)cnc2c(C#N)cc(N[C@H](c3cn(C4(c5ccncc5)CC4)nn3)c3ccccc3Cl)cc12 [Example 1011, (S)-6-(((2-chlorophenyl)(1-(1-(pyridin-4-yl)cyclopropyl)-1H-1,2,3-triazol-4-yl)methyl)amino)-4-(neopentylamino) quinoline-3,8-dicarbonitrile] | 8.52 | 7.66 | – |
| Cc1c(C#N)cccc1[C@H](Nc1cc(Cl)c2ncc(C#N)c(NCC(C)(C)C)c2c1)c1cn(C2(C(F)F)CC2)nn1 [Example 1012, (S)-8-chloro-6-(((3-cyano-2-methylphenyl)(1-(1-(difluoromethyl)cyclopropyl)-1H-1,2,3-triazol-4-yl)methyl)amino)-4-(neopentylamino)quinoline-3-carbonitrile] | 8.52 | 7.44 | – |
| Cc1c(C#N)cccc1[C@H](Nc1cc(C#N)c2ncc(C#N)c(NCC(C)(C)C)c2c1)c1cn(C2(C(F)F)CC2)nn1 [Example 1013, (S)-6-(((3-cyano-2-methylphenyl)(1-(1-(difluoromethyl)cyclopropyl)-1H-1,2,3-triazol-4-yl)methyl)amino)-4-(neopentylamino)quinoline-3,8-dicarbonitrile] | 8.70 | 7.64 | – |
| CC(C)(C)CNc1c(C#N)cnc2c(C#N)cc(N[C@H](c3cn(C4(C(N)=O)CCC4)nn3)c3ccccc3Cl)cc12 [Example 1014, (S)-1-(4-((2-chlorophenyl) ((3,8-dicyano-4-(neopentylamino)quinolin-6-yl)amino)methyl)-1H-1,2,3-triazol-1-yl)cyclobutane-1-carboxamide] | 8.52 | 6.97 | – |
| CC(C)(C)CNc1c(C#N)cnc2c(F)cc(N[C@H](c3cn(C4CC4)nn3)c3ccccc3Cl)cc12 [Example 1015, (S)-6-(((2-chlorophenyl)(1-cyclopropyl-1H-1,2,3-triazol-4-yl)methyl)amino)-8-fluoro-4-(neopentylamino)quinoline-3-carbonitrile] | 7.85 | 6.34 | – |
| [2H][C@](Nc1cc(Cl)c2ncc(C#N)c(NCC(C)(C)c3ccccn3)c2c1)(c1ccc(F)cc1)c1cn(C2CC2)nn1 [Example 1016, (S)-8-chloro-6-(((1-cyclopropyl-1H-1,2,3-triazol-4-yl)(4-fluorophenyl)methyl-d)amino)-4-((2-methyl-2-(pyridin-2-yl)propyl)amino)quinoline-3-carbonitrile] | 7.55 | ≤ 6.00 | – |
| CC(C)(C)CNc1c(C#N)cnc2c(F)cc(N[C@H](c3cn(C4(C(F)(F)F)CC4)nn3)c3ccccc3Cl)cc12 [Example 1017, (S)-6-(((2-chlorophenyl)(1-(1-(trifluoromethyl)cyclopropyl)-1H-1,2,3-triazol-4-yl)methyl)amino)-8-fluoro-4-(neopentylamino)quinoline-3-carbonitrile] | 7.07 | ≤ 6.00 | – |
| [2H][C@](Nc1cc(C#N)c2ncc(C#N)c(NC3CCCC3(C)C)c2c1)(c1ccc(F)cc1)c1cn(C2(C(F)(F)F)CC2)nn1 (stereo partly drawn) [Example 1018, 4-((2,2-dimethylcyclopentyl)amino)-6-(((S)-(4-fluorophenyl)(1-(1-(trifluoromethyl)cyclopropyl)-1H-1,2,3-triazol-4-yl)methyl-d)amino)quinoline-3,8-dicarbonitrile] | 7.66 | 6.49 | – |
| CC(C)(C)CNc1c(C#N)cnc2c(C#N)cc(N[C@H](c3cn(C4(C(N)=O)CCCC4)nn3)c3ccccc3Cl)cc12 [Example 1020, (S)-1-(4-((2-chlorophenyl) ((3,8-dicyano-4-(neopentylamino)quinolin-6-yl)amino)methyl)-1H-1,2,3-triazol-1-yl)cyclopentane-1-carboxamide] | 8.22 | 6.79 | – |
| CC(C)(C)CNc1c(C#N)cnc2c(C#N)cc(N[C@H](c3cn(C(C)(C)C(N)=O)nn3)c3ccccc3Cl)cc12 [Example 1021, (S)-2-(4-((2-chlorophenyl) ((3,8-dicyano-4-(neopentylamino)quinolin-6-yl)amino)methyl)-1H-1,2,3-triazol-1-yl)-2-methylpropanamide] | 8.40 | 6.63 | – |
| CC(C)(C)CNc1c(C#N)cnc2c(C#N)cc(N[C@H](c3cn(C4(C(N)=O)CCOC4)nn3)c3ccccc3Cl)cc12 (stereo partly drawn) [Example 1022, 3-(4-((S)-(2-chlorophenyl) ((3,8-dicyano-4-(neopentylamino)quinolin-6-yl)amino)methyl)-1H-1,2,3-triazol-1-yl)tetrahydrofuran-3-carboxamide] | 8.15 | 6.30 | – |
| CC(C)(C)CNc1c(C#N)cnc2c(C#N)cc(N[C@H](c3cn(C4(C(N)=O)CCOCC4)nn3)c3ccccc3Cl)cc12 [Example 1023, (S)-4-(4-((2-chlorophenyl) ((3,8-dicyano-4-(neopentylamino)quinolin-6-yl)amino)methyl)-1H-1,2,3-triazol-1-yl)tetrahydro-2H-pyran-4-carboxamide] | 7.68 | ≤ 6.00 | – |
| Cc1ccccc1[C@H](Nc1cc(C#N)c2ncc(C#N)c(NCC(C)(C)C)c2c1)c1cn(C2(C#N)CC2)nn1 [Example 1024, (S)-6-(((1-(1-cyanocyclopropyl)-1H-1,2,3-triazol-4-yl)(o-tolyl)methyl)amino)-4-(neopentylamino)quinoline-3,8-dicarbonitrile] | 8.30 | 7.27 | – |
| CC(C)(C)CNc1c(C#N)cnc2c(C#N)cc(N[C@H](c3cn(C4(C#N)CC4)nn3)c3ccccc3C(F)F)cc12 [Example 1025, (S)-6-(((1-(1-cyanocyclopropyl)-1H-1,2,3-triazol-4-yl)(2-(difluoromethyl)phenyl)methyl)amino)-4-(neopentylamino)quinoline-3,8-dicarbonitrile] | 8.00 | 6.88 | – |
| CC(C)(C)CNc1c(C#N)cnc2c(C#N)cc(N[C@H](c3cn(C4(C#N)CC4)nn3)c3ccccc3CO)cc12 [Example 1026, (S)-6-(((1-(1-cyanocyclopropyl)-1H-1,2,3-triazol-4-yl)(2-(hydroxymethyl)phenyl)methyl)amino)-4-(neopentylamino)quinoline-3,8-dicarbonitrile] | 8.15 | 6.43 | – |
| CC(C)(C)CNc1c(C#N)cnc2c(C#N)cc(N[C@H](c3cn(C4(C#N)CC4)nn3)c3cccc(C#N)c3Cl)cc12 [Example 1027, (S)-6-(((2-chloro-3-cyanophenyl)(1-(1-cyanocyclopropyl)-1H-1,2,3-triazol-4-yl)methyl)amino)-4-(neopentylamino)quinoline-3,8-dicarbonitrile] | 8.40 | 6.85 | – |
| [2H][C@](Nc1cc(Cl)c2ncc(C#N)c(N[C@H](CC)c3ccccc3)c2c1)(c1ccc(F)cc1)c1cn(C2(C(F)F)CC2)nn1 [Example 1028, 8-chloro-6-(((S)-(1-(1-(difluoromethyl)cyclopropyl)-1H-1,2,3-triazol-4-yl)(4-fluorophenyl)methyl-d)amino)-4-(((R)-1-phenylpropyl)amino)quinoline-3-carbonitrile] | 7.77 | 6.59 | – |

Reference: patent US10316017B2, “COT modulators and methods of use thereof” (Gilead Sciences, Inc., priority 2015, dated 2019)
